Assay results taken from patent publication US10238689B2, “Methods for combating bacterial infections by killing persister cells with mitomycin C and/or cisplatin” (THE PENN STATE RESEARCH FOUNDATION, priority 2015, dated 2019).
“Also recorded” adds a separate entry of the source.

Tests used:
[1] = tested on: E. coli K-12 BW25113 VBNC cultures; assay: VBNC antibiotic killing assay; format: cell-based, Escherichia coli; details: 16 h
Method: Overnight cultures (16 h) of E. coli K-12 BW25113 grown in LB were diluted 1:1000 in LB and grown to a turbidity of 3.0 at 600 nm. Cells were washed three times with 0.85% NaCl to remove nutrients and incubated in 0.85% NaCl for 32 days until the VBNC population was ˜1,000-fold higher than the culturable population. […] Samples (0.5 mL) were diluted 1:1 with LB to stimulate cellular respiration for 10 min prior to staining with 1 μL of 1 mM RedoxSensor™ Green dye and 1 μL of 20 mM propidium iodide. Samples were visualized in a hemocytometer (Hausser Scientific, Horsham, Pa., USA) using an Olympus BX61 confocal microscope (Olympus, Tokyo, Japan) at 200× magnification in order to determine viability of the VBNC population. Cell counting data was averaged from four images and experiment was performed with at least two independent cultures.

[2] = tested on: EHEC, S. aureus, and P. aeruginosa PAO1; format: cell-based; details: mono- and co-cultures in wound-like medium, 5 h treatment
Method: Overnight cultures (16 h) of EHEC, S. aureus, and P. aeruginosa PAO1 were grown in LB (TSB for S. aureus), washed with 0.85% NaCl solution, and diluted 1:1000 (as mono-cultures or co-cultures) in wound-like medium (WLM) (45% Bolton broth, 50% heparinized bovine plasma, and 5% laked horse blood). […] Samples containing S. aureus were coagulated, so sections of coagulated WLM were cut and weighed add appropriate amounts of antibiotics. Coagulated samples were triturated and vortexed to release cells prior to measuring cell viability.

[3] = tested on: EHEC infection; format: in vivo, Caenorhabditis elegans; details: MMC 10 μg/mL, ciprofloxacin 5 μg/mL, ampicillin 100 μg/mL, 6 h exposure; four replicates
[4] = tested on: enterohemorrhagic E. coli (EHEC); assay: Persister cell assay of pathogens (stationary phase); format: cell-based, Escherichia coli; details: stationary-phase cells, buffered LB; cisplatin 500 μg/mL, 5×MIC, 3 h
Method: (§1) For the persister cell assay of the pathogens, stationary-phase cells were used. Cultures of EHEC, P. aeruginosa, and S. aureus were prepared by a 1:1000 dilution of overnight grown cultures (LB medium for EHEC and P. aeruginosa, TSB for S. aureus) into fresh buffered LB medium for EHEC, M9-glucose for P. aeruginosa, and TSB for S. aureus and re-growing the cells to a turbidity of 3 to 4 at 600 nm for EHEC and S. aureus and growing for 24 h for P. aeruginosa. Stationary-phase cultures of EHEC (buffered LB medium), P. aeruginosa (M9-glucose medium), and S. aureus (TSB medium) were then treated with cisplatin (500 μg/mL for EHEC and S. aureus, 250 μg/mL for P. aeruginosa) for 3 h (250 mL flask, 250 rpm).

[5] = tested on: E. coli K-12 cells; assay: Test of DNA crosslinking compounds for antimicrobial activity; format: cell-based, Escherichia coli; details: 100 μg/mL
Method: Stocks of cisplatin (2 mg/mL, Sigma-Aldrich, St. Louis, Mo., USA) were prepared in 0.1M NaClO4 and MMC (0.5 mg/mL, Fisher Scientific, Pittsburgh, Pa., USA) was prepared in water. Stocks of busulfan (2 mg/mL, Cayman Chemical, Ann Arbor, Mich., USA), melphalan (2 mg/mL, Cayman Chemical), dynemicin A (5 mg/mL, AdooQ, Irvine, Calif., USA), and tirapazamine (0.5 mg/mL, Sigma-Aldrich) were prepared in dimethylsulfoxide, the stock of cyclophosphamide (0.5 mg/mL, Cayman Chemical) was prepared in water, and the stock of carmustine (214 mg/mL, Enzo Life Sciences, Farmingdale, N.Y., USA) was prepared in ethanol.
In this Example we tested seven other DNA crosslinking compounds: busulfan (100 μg/mL), carmustine (100 μg/mL) cisplatin (100 μg/mL), cyclophosphamide (100 μg/mL), dynemicin A (200 μg/mL), melphalan (100 μg/mL), and tirapazamine (10 μg/mL).

[6] = tested on: E. coli K-12; assay: Minimum inhibitory concentration (MIC) assay; format: cell-based, Escherichia coli; details: 16 h, lack of turbidity
Method: Minimum inhibitory concentration (MIC) assay. To determine the MICs of cisplatin for E. coli K-12, enterohemorrhagic E. coli (EHEC), S. aureus, and P. aeruginosa (PAO1 and PA14), freshly inoculated cultures (at least two independent cultures) in buffered LB (TSB for S. aureus) were incubated for 16 h with varying concentrations of cisplatin, and growth inhibition was assayed by the lack of turbidity.

[7] = tested on: S. aureus ATCC29213; assay: Persister cell assay of pathogens (stationary phase); format: cell-based, Staphylococcus aureus; details: stationary phase cells, TSB; cisplatin 500 μg/mL, 1.7×MIC, 3 h
Method: as §1

[8] = tested on: E. coli K-12 persister cells; assay: Rifampicin-induced persister cell killing assay; format: cell-based, Escherichia coli
Method: Rifampicin-pretreatment was used to convert nearly all the E. coli exponentially-growing cells to persister cells. In brief, overnight cultures (16 h) of E. coli BW25113 were diluted 1:1000 in buffered LB and grown to a turbidity of 0.8 at 600 nm (250 mL flask, 250 rpm). Cultures were treated with rifampicin (100 μg/mL) for 30 min (250 mL flask, 250 rpm), centrifuged, and resuspended in fresh medium to remove the rifampicin. A 1 mL culture was used for a drop assay to check cell viability at 0 h. […] After 3 h, 1 mL of culture was centrifuged at 10,000 rpm for 3 min, the supernatant was discarded, the cells were resuspended in 1 mL of normal saline, and the cell suspension was serially diluted for a drop assay to check cell viability. In addition, 1 mL samples were centrifuged, and the cell pellet resuspended in 150 μL of normal saline and spread on LB agar.
To test whether lower concentrations than 500 μg/mL of cisplatin generate resistant mutants, 5 mL cultures of rifampicin-induced persister cells were treated with 200 μg/mL of cisplatin and cells were enumerated by the drop assay using LB agar, LB agar with 200 μg/mL of cisplatin (LBCP200), and LB agar with 500 μg/mL of cisplatin (LBCP500).

[9] = treatment with 2×MIC (200 μg/mL) of cisplatin

Compound	fold more effective at killing VBNC cells than ciprofloxacin ([1]; VBNC population (RedoxSensor Green), MMC 10 μg/mL vs ciprofloxacin 5 μg/mL)	survival of the culturable population ([1]; culturable population of VBNC cultures, MMC 10 μg/mL, ciprofloxacin 5 μg/mL)	effectiveness under wound-like conditions [2]	survival of the EHEC-infected worms [3]	cell viability after treatment [4]	antimicrobial activity [5]	MIC [6]	survival [7]	colonies from 1 mL samples ([8]; after the 3 h cisplatin treatment (500 μg/mL))	number of persister cells after treatment (drop assay) ([8]; cisplatin 500 μg/mL, 3 h, limit of detection)	colonies on LBCP500 agar plates (spontaneous resistant mutants) [8, 9]	survivors on LBCP200 agar plates [8, 9]
CO[C@@]12[C@H](COC(N)=O)C3=C(C(=O)C(C)=C(N)C3=O)N1C[C@@H]1N[C@@H]12 [MMC, mitomycin C]	7 fold	eradicates the culturable population; also recorded: eradicating the culturable population	eradicates pathogens; also recorded: more effective than ciprofloxacin and ampicillin	higher than with either ciprofloxacin or ampicillin	–	–	–	–	–	–	–	–
N.N.[Cl][Pt][Cl] [cisplatin, cis-diamminodichloroplatinum(II)]	–	–	–	–	eradicated	exhibited antimicrobial activity	100 mg/L	0.0001±0.0001%	37±5 colonies	< 100 cells/mL	no colonies were found	0.08%
